In US20220351803A1, “Predicting The Response Of A Microbiota To Dietary Fibers” (MYOTA GMBH, priority 2019, published 2022):

Assays:
stool microbiota [1] = experiment: Ex vivo stool slurry incubation, SCFA production by GC-FID; set-up: species or system human
Procedure: (§1) Fresh stool samples were collected and weighed before being transferred to anaerobic conditions, in which they were diluted in reduced PBS containing 0.1% L-Cysteine to a ratio of 1 g/5 ml. Samples were homogenized into a slurry before being aliquoted into 96-well plates. Samples of the unaltered slurry were taken for a baseline sample, after which inulin, pectin, and cellulose were added from stock solutions to final slurry concentrations of 10 g/L, 5 g/L and 20 g/L, respectively. Concentrations of inulin and pectin were determined based on the maximum stock concentration we were able to obtain in which the dietary fiber was fully dissolved. Four conditions were measured: inulin, pectin, cellulose and control (no spike-in). The samples were incubated anaerobically at 37° C., and two biological replicates (two different wells in the 96-well plates) were collected at each time point. Samples were collected after 2 and 4 hours from all participants and sent out for SCFA quantification on a GC-FID. Linear production rate was measured between 2 h and 4 h because this allowed Applicants maximum accuracy in measuring the time interval without introducing artefacts due to delays between conditions introduced during setup. Results obtained from slurry in large flasks on a shaker were in good agreement with data obtained in a 96-well plate format.
Chromatographic analysis was carried out using an Agilent 7890B system with a flame ionization detector (FID) (Agilent Technologies, Santa Clara, Calif.). A high resolution gas chromatography capillary column 30 m×0.25 mm coated with 0.25 μm film thickness was used (DB-FFAP) for the volatile acids (Agilent Technologies) and a high resolution gas chromatography capillary column 30 m×0.25 mm coated with 0.50 μm film thickness was used (DB-FFAP) for the nonvolatile acids. Nitrogen was used as the carrier gas. […]
The samples were kept frozen at −80° C. until analysis. […] A sample of the raw fecal material was transferred to a 2 mL tube, the weight of the fecal material was determined and 1.5 mL of HPLC water was added to each sample. […]

CaCo cell monolayers = experiment: Gut monolayer SCFA absorption measurements (Transwell, apical/basal sampling over 24 h); type: in vitro ADME; settings: CaCo monolayer-derived rate constant
Procedure: Applicants used a gut monolayer system without the immune component, the Gut monolayer was prepared as previously described by WLK Chen et al. (Chen et al., 2017b) Briefly Caco-2 or C2BBe1 along with HT29-MTX-E21 cells (Sigma) were seeded onto rat tail collagen I-(corning 354236) coated Transwell inserts (Corning 3460) in a 9:1 ratio (1×10^5 cells/cm2) in 500 μl seeding medium. The top and bottom compartments of the Transwell Plate were fed with 500 ul and 1.5 ml of seeding medium. The medium was changed every 2-3 days. After 20 days of gut insert maturation, the cell monolayer was ready to use.
Barrier integrity was quantified by TEER (TransEpithelial Electrical Resistance) using the EVOM2 and the Enfohm-12 (World Precision Instruments) at 37° C. Applicants measured cell monolayer integrity at the beginning and the end of the 24 h long experiment. […]
Gut luminal concentrations of microbially-derived SCFAs is a balance between net production in the lumen and absorption by the host epithelium. Unfortunately, quantitative understanding of the rate of absorption of a given SCFA by cells in the gut epithelia is limited. […] Applicants sought to estimate the order of magnitude of this rate constant, to better understand the fate of SCFAs produced by the microbiota in the colon (i.e. the balance between quantities absorbed versus quantities excreted). […]

[2] = dialysis bag constant; cited from earlier work
stool microbiota [3] = experiment: Ex vivo stool slurry incubation, inulin depletion by inulin-specific ELISA; set-up: species or system human
Procedure: as §1
Applicants use BioPAL's inulin immunoassay kit (BioPAL Worcester Mass.) to measure inulin concentration in filtrate from stool samples and follow manufacture's protocol. […]
To measure SCFA production ex vivo in response to different dietary polysaccharides, stool from 40 healthy human participants was homogenized into a slurry in anaerobic conditions and spiked with inulin, pectin or cellulose (cf. Methods). The slurry was then allowed to evolve over time and samples obtained at regular intervals in order to quantify SCFA content at each timepoint (FIG. 1). In order to determine the appropriate sampling frequency, Applicants performed pilot experiments in which Applicants analysed the trajectory of each SCFA concentration over a 24 h period. […]

cellulose
SCFA production rates versus control (no spike-in) (stool microbiota [1]; 20 g/L cellulose, timepoints 2 h and 4 h): indistinguishable from control

pectin
butyrate concentration over 24 h (stool microbiota [1]; participant G): produces it from pectin as well

CCCC(=O)[O-].[Na+] [butyrate, Sodium Butyrate]
absorption rate constant of butyrate (CaCo cell monolayers): 0.091 mmol L-1h-1cm-2
absorption rate constant of butyrate [2]: 0.0019 mmol L-1h-1cm-2

inulin
inulin substrate in slurry after 4 h (stool microbiota [3]; 10 g/L inulin, 4 h): a significant fraction of inulin substrate remained
inulin substrate in slurry by 24 h (stool microbiota [3]; 10 g/L inulin, 24 h, five of the six participants tested): almost entirely consumed
time for the majority of inulin to be fermented by the microbiota ex vivo (stool microbiota [3]; input concentration 10 g/L, most participants): 12 to 24 h
butyrate concentration over 24 h (stool microbiota [1]; participant C): only produces butyrate from inulin
